Patent US4351763A, “Pharmacologically active peptides” (Eli Lilly and Company, priority 1981, dated 1982)
Where a SMILES comes first, the peptide text is derived from it. [ ]: non-standard residue; d: D form. Phe(4-F) = N[C@@H](Cc1ccc(F)cc1)C(=O)O; NMeM = CN[C@@H](CCSC)C(=O)O

tested on: mouse; assay: mouse hot plate test (analgesic activity); assay type: in vivo; conditions: hot plate 52° C., 15 minutes after administration, latency until jump
Experimental: In this test, a mouse is placed inside an upright acrylic cylinder comprising, as its base, a hot plate surface which is maintained at 52° C. The mouse is given, orally or by subcutaneous injection, a predetermined amount of test compound dissolved or suspended in a suitable carrier, and, 15 minutes after administration of the test compound, the mouse is placed on the hot plate surface. The latency in seconds until the mouse jumps from the hot plate surface is measured. […] This must occur in a dose range which produces no motor incoordination or incapacitation. The following Table records the ED50 results obtained from this test.

Going from `COc1ccc([C@H](NC(=O)[C@H](Cc2ccc(F)cc2)NC(=O)CNC(=O)[C@@H](C)NC(=O)[C@@H](N)Cc2ccc(O)cc2)C(N)=O)cc1` [Example 2, L-Tyrosyl-D-alanylglycyl-L-p-fluorophenylalanyl-L-p-methoxyphenylglycinamide] to `C[C@@H](NC(=O)[C@@H](N)Cc1ccc(O)cc1)C(=O)NCC(=O)N[C@@H](Cc1ccc(F)cc1)C(=O)N[C@H](C(N)=O)c1ccccc1` [Example 3 L-Pgl, L-Tyrosyl-D-alanyl-glycyl-L-p-fluorophenylalanyl-L-phenylglycinamide], the “Analgesic Activity, Hot Plate Test ED50, mg./kg., subcutaneous” value (“Analgesic Activity, Hot Plate Test ED50” below) falls from 1.04 mg/kg to 0.063 mg/kg (17-fold).

First: CSCC[C@@H](C(N)=O)N(C)C(=O)[C@H](Cc1ccc(F)cc1)NC(=O)CNC(=O)[C@@H](C)NC(=O)[C@@H](N)Cc1ccc(O)cc1 [Example 1, L-Tyrosyl-D-alanylglycyl-L-p-fluorophenylalanyl-L-(N^α -methyl)methioninamide]
Second: CSCC[C@@H](C(N)=O)N(C)C(=O)[C@H](Cc1ccc(F)cc1)NC(=O)CNC(=O)[C@H](NC(=O)[C@@H](N)Cc1ccc(O)cc1)[C@H](C)O [Example 4, L-Tyrosyl-D-threonylglycyl-L-p-fluorophenylalanyl-L-(N^α -methyl)methioninamide] (H-Y[dT]G[Phe(4-F)][NMeM]-NH2)
The “Analgesic Activity, Hot Plate Test ED50” value of the first is 3.8-fold lower: 0.023 mg/kg for the first, 0.088 mg/kg for the second.

With `C[C@@H](NC(=O)[C@@H](N)Cc1ccc(O)cc1)C(=O)NCC(=O)N[C@@H](Cc1ccc(F)cc1)C(=O)N[C@@H](C(N)=O)c1ccccc1` [Example 3 D-Pgl, L-Tyrosyl-D-alanyl-glycyl-L-p-fluorophenylalanyl-D-phenylglycinamide] the “Analgesic Activity, Hot Plate Test ED50” value was 0.103 mg/kg.
